Here are results for 31 molecules from ChEMBL document CHEMBL1201862, “PubChem BioAssay data set” (2004).

Among the test systems are BT-549; Hs-578T; PC-3; DMS-273; KM-20L2; SNB-78; XF498; RXF 631; T47D.
Common to all, as to test: NCI tumour cell line growth inhibition, 48 h

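Compound exposure: 48 hours, 5 concentrations, 96-well plates. Abbreviation: GI50, concentration required for 50% inhibition of growth.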 Activity calls are given as the source filed them. Rule as the data show it: active = GI50 up to about 1.1 µM and inactive = higher. Bounds are passed on as bounds.

`O=C(O)C(Cc1ccc(O)cn1)NC(=O)C(F)(F)F` (stereo not given): the GI50 with BT-549, in the assay with Hs-578T and in the assay with PC-3 was > 100 µM (inactive) throughout.

Turning to `O=[N+]([O-])c1ccc(C2=Nc3ccccc3SC(c3ccccc3)C2)cc1` (stereo not given), the GI50 in the assay with DMS-273 was 13.3 µM (inactive); in the assay with KM-20L2, 17.6 µM (inactive); with SNB-78, 23.6 µM (inactive); in the assay on XF498, 17.5 µM (inactive).

For the molecule `CNc1ccccc1-c1nc2ccccc2c(=O)o1`, the GI50 was > 100 µM (inactive) in the assay on DMS-273; > 100 µM (inactive) in the assay with KM-20L2; > 100 µM (inactive) in the assay with RXF 631; 55.3 µM (inactive) with SNB-78; 31 µM (inactive) with XF498.

Regarding `O=C(c1ccco1)C1CC(c2c(O)ccc3ccccc23)=NN1` (stereo not given), the GI50 was 14.9 µM (inactive) in the assay with BT-549, 18.5 µM (inactive) with Hs-578T, 8.79 µM (inactive) with PC-3 and 3.33 µM (inactive) with T47D.

Consider `O=CCCn1[nH]c(=O)ccc1=O`, for which the GI50 with DMS-273, with KM-20L2 and in the assay with SNB-78 was > 100 µM (inactive) each time.

`COC(=O)C1(Cc2ccccc2)Cc2cc3c(cc2C1)CCC3`: the GI50 in the assay on BT-549 is 35 µM (inactive); in the assay with Hs-578T it was 34.4 µM (inactive); with PC-3, 24 µM (inactive); with T47D, 18.2 µM (inactive).

With `O=c1[nH]c(-c2ccccc2)nc2cc([N+](=O)[O-])c(/C(Cl)=C/c3ccccc3)cc12`, the GI50 in the assay with DMS-273 was 29.1 µM (inactive); in the assay on KM-20L2, 33.7 µM (inactive); in the assay on SNB-78, 35 µM (inactive).

Turning to `N[C@@H](CSCSC[C@H](N)C(=O)O)C(=O)O`, the GI50 in the assay on DMS-273 was > 225 µM (inactive); in the assay with KM-20L2, > 164 µM (inactive); with SNB-78, 126 µM (inactive); with XF498, > 225 µM (inactive).

With `CN(N)c1nc(N)c(C#N)c(C#N)c1C#N`, the GI50 in the assay on BT-549, in the assay on Hs-578T, with PC-3 and in the assay on T47D was > 10 µM (inactive) each time.

Take `COc1ccc(N[S+]([O-])c2ccc(-c3ccccc3)cc2)cc1` (stereo not given): the GI50 with Hs-578T is 0.667 µM (active); with PC-3, 22.3 µM (inactive).

Regarding `CCOC(=O)/C=C1/Oc2ccccc2C1(C)O` (stereo not given), the GI50 with DMS-273, in the assay on KM-20L2 and with SNB-78 was > 100 µM (inactive) throughout.

`COc1ccc(/C=C2\CC3C4CC=C5C[C@@H](O)CC[C@]5(C)C4CC[C@]3(C)\C2=N\O)cc1OC` (stereo not given in full): the GI50 in the assay with BT-549 is 15.1 µM (inactive); with Hs-578T, 8.77 µM (inactive); with PC-3, 6.03 µM (inactive); with T47D it was 3.35 µM (inactive).

On to `COC(=O)c1ccc(/C=C2\N=C(C)OC2=O)cc1`, for which the GI50 with DMS-273, in the assay on KM-20L2, in the assay on RXF 631 and with XF498 was > 100 µM (inactive) throughout.

As for `COc1ccc(/C(Cl)=C(\C=O)c2ccc(OC)cc2)cc1`, the GI50 is 37 µM (inactive) in the assay on DMS-273, > 100 µM (inactive) in the assay on KM-20L2, 58.3 µM (inactive) with RXF 631 and > 100 µM (inactive) in the assay with SNB-78.

Take `CC(=O)OC/C=C\Cn1ncc(=O)[nH]c1=O`: the results for the GI50 with Hs-578T, with PC-3 and with T47D were 27.7 µM (inactive), 16 µM (inactive) and 22.1 µM (inactive), respectively.

For `COC(=O)/C=C(\C)CCC1SC1(C)C` (stereo not given), the GI50 with DMS-273, with KM-20L2, in the assay with SNB-78 and with XF498 was > 100 µM (inactive) each time.

For `CN(C)C(=O)C1CCC(=C2C(=O)OC(C)(C)OC2=O)N1C` (stereo not given), the GI50 with DMS-273, with KM-20L2, in the assay on SNB-78 and in the assay on XF498 was > 100 µM (inactive) each time.

Regarding `CC(=O)/N=C1/N(/C=C2\C(=O)Oc3ccccc3C2=O)C(=O)/C(=C/c2ccc(OC(C)=O)cc2)N1C`, the GI50 in the assay on Hs-578T, in the assay on PC-3 and in the assay with T47D was > 100 µM (inactive) each time.

In the case of `CC(C)=C1C2CC3(C)CCC2(C)CCC13.CC1=CCC2C3(C)CCC2(C(C)C)C1C3` (stereo not given), the GI50 in the assay with BT-549 is 19.8 µM (inactive); with Hs-578T, 18.4 µM (inactive); in the assay with PC-3, 39.3 µM (inactive); with T47D, 36.7 µM (inactive).

Regarding `COC(=O)[C@@H](NC(=O)[C@H](N)Cc1ccc(N(CCCl)CCCl)cc1)C(C)C`, the GI50 with BT-549 was 23.4 µM (inactive); with Hs-578T, 26.2 µM (inactive); in the assay on PC-3 it was 21.7 µM (inactive); with T47D it was 2.86 µM (inactive).

Regarding `CC1(C)CC[C@]2(C)CC[C@]3(C)C(=CC[C@@H]4[C@@]5(C)CCC(=O)C(C)(C)[C@@H]5[C@H](O)C[C@]43C)[C@@H]2C1`, the GI50 was 20.5 µM (inactive) in the assay with BT-549, 19.5 µM (inactive) with Hs-578T, 17.1 µM (inactive) with PC-3 and 17.3 µM (inactive) with T47D.

For the molecule `O=C(Nc1ccccc1Br)c1cccc([N+](=O)[O-])c1O`, the GI50 is 3.53 µM (inactive) in the assay on DMS-273, 4.09 µM (inactive) in the assay on KM-20L2, 17.7 µM (inactive) in the assay on RXF 631 and 5.09 µM (inactive) in the assay on SNB-78.

With `Nc1n[nH]c(CCCCCCCc2nnc(N)[nH]2)n1`, in the assay with SNB-78, the GI50 is > 100 µM (inactive).

For the molecule `CN1C2CCC1CC(C)(O)C2` (stereo not given), the GI50 in the assay on BT-549, with PC-3 and in the assay with T47D was > 100 µM (inactive) throughout.

As for `CC1OC(O)CC(OC(=O)c2ccccc2)C1OC(=O)c1ccccc1` (stereo not given), the GI50 was 14.5 µM (inactive) in the assay with DMS-273, 66.2 µM (inactive) in the assay with KM-20L2 and 19.9 µM (inactive) in the assay on XF498.

`CC1(C)[C@@H]2C[C@H]1C(Cc1ccccc1C[C@H]1c3cc(-c4ccccn4)ncc3[C@H]3C[C@@H]1C3(C)C)c1cc(-c3ccccn3)ncc12` (stereo not given in full): the figures for the GI50 in the assay on BT-549, in the assay on PC-3 and with T47D were 0.716 µM (active), 0.47 µM (active) and 0.294 µM (active), respectively.

As to `N=c1c2c(=S)n(-c3ccccc3)c(=S)n(-c3ccccc3)c2nc(SCCCN2CCN(c3cccc(Cl)c3)CC2)n1-c1ccccc1`, the values for the GI50 in the assay on BT-549, in the assay on Hs-578T and in the assay on PC-3 were > 100 µM (inactive), > 100 µM (inactive) and 43.9 µM (inactive), respectively.

Regarding `CC(C)=CC(=O)OC1C2C(C)=CC(O)C(O)C2(C)C2C3(O)OCC24C(CC(=O)OC14)C(C)C3O` (stereo not given), the GI50 was 0.0264 µM (active) in the assay with DMS-273, 0.354 µM (active) with KM-20L2, 0.272 µM (active) in the assay with SNB-78 and 0.122 µM (active) in the assay with XF498.

`CCN1C(=O)C(=Cc2ccc(-c3ccccc3)cc2)C(=O)N(CC)C1=S`: the GI50 in the assay with BT-549, in the assay on Hs-578T, in the assay with PC-3 and in the assay on T47D was > 100 µM (inactive) each time.

As to `Nc1cc(S(=O)(=O)O)cc2cc(S(=O)(=O)O)c(/N=N/c3ccc(-c4ccc(/N=N/c5c(S(=O)(=O)O)cc6cc(S(=O)(=O)O)cc(N)c6c5O)cc4)cc3)c(O)c12`, the GI50 in the assay on DMS-273, in the assay with KM-20L2, with SNB-78 and with XF498 was > 100 µM (inactive) throughout.

As for `CCc1ccc(Nc2cc(=O)[nH]c(=S)n2C)cc1`, the GI50 in the assay with DMS-273, with KM-20L2, with SNB-78 and in the assay with XF498 was > 100 µM (inactive) in each case.
